Data reported in patent US11208412B2 (DAEGU-GYEONGBUK MEDICAL INNOVATION FOUNDATION, priority 2017, dated 2021).

How the values were obtained:
Test in all cases: Kinase selectivity, DiscoverX scanMAX Kinase assay panel (% control)
Format in all cases: binding
[1] = target: T1, kinases of the scanMAX Kinase assay panel (Homo sapiens, UniProt Q15375); conditions: EPHA7; 1 uM
T1 construct: purchased DiscoverX Co. (contract measurement) scanMAX Kinase assay panel
Outline: (§1)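 Each enzyme is treated with drug at 1 uM in DMSO, then signal is scaled between a positive control (0%) and DMSO (100%) to give % control. Kinases with % control under 35% are scored as inhibited.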

[2] = target: T2, kinases of the scanMAX Kinase assay panel (Homo sapiens, UniProt P42680); conditions: kinase TEC; 1 uM in DMSO
T2 construct: purchased DiscoverX Co. (contract measurement) scanMAX Kinase assay panel
T2 sequence (P42680 1-631): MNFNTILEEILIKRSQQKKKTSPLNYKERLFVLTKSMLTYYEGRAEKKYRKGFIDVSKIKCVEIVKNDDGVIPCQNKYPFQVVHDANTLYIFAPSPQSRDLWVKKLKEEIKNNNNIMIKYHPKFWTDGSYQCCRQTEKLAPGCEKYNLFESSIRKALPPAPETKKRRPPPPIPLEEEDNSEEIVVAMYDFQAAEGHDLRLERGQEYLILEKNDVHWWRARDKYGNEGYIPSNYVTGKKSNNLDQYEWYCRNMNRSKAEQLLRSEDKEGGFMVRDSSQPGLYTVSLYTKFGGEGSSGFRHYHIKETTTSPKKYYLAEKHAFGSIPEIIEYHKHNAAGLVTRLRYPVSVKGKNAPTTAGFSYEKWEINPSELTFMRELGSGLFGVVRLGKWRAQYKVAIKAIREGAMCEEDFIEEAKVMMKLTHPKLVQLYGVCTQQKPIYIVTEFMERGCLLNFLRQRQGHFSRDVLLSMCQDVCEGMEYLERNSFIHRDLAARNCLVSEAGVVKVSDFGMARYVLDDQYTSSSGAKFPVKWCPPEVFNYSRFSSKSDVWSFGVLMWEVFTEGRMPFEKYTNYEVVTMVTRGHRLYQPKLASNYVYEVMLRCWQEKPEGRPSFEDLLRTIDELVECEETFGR
Outline: as §1

[3] = target: T3, kinases of the scanMAX Kinase assay panel (Homo sapiens, UniProt Q9UHD2); conditions: kinase TBK1; 1 uM in DMSO
T3 construct: purchased DiscoverX Co. (contract measurement) scanMAX Kinase assay panel
T3 sequence (Q9UHD2 1-729): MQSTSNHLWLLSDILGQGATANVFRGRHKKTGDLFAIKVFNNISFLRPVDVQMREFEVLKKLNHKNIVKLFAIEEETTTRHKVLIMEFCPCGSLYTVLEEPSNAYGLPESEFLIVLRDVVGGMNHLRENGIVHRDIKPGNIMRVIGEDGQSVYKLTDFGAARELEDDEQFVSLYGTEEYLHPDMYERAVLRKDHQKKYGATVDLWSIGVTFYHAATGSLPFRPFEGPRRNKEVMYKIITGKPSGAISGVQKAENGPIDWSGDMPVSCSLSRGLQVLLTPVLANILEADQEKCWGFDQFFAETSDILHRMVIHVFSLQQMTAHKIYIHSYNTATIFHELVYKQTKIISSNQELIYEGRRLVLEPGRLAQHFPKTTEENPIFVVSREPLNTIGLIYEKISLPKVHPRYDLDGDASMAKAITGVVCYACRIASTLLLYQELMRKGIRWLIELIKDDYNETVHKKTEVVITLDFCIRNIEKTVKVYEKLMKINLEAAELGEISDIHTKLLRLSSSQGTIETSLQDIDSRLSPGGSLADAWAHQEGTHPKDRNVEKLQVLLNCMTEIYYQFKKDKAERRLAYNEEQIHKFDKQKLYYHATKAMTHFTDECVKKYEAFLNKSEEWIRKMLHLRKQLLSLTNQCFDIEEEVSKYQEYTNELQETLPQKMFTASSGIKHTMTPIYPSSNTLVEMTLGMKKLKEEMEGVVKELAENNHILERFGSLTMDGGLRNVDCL
Outline: as §1

[4] = target: T4, kinases of the scanMAX Kinase assay panel (Homo sapiens, UniProt Q96BR1); conditions: kinase SGK3; 1 uM in DMSO
T4 construct: purchased DiscoverX Co. (contract measurement) scanMAX Kinase assay panel
T4 sequence (Q96BR1 1-496): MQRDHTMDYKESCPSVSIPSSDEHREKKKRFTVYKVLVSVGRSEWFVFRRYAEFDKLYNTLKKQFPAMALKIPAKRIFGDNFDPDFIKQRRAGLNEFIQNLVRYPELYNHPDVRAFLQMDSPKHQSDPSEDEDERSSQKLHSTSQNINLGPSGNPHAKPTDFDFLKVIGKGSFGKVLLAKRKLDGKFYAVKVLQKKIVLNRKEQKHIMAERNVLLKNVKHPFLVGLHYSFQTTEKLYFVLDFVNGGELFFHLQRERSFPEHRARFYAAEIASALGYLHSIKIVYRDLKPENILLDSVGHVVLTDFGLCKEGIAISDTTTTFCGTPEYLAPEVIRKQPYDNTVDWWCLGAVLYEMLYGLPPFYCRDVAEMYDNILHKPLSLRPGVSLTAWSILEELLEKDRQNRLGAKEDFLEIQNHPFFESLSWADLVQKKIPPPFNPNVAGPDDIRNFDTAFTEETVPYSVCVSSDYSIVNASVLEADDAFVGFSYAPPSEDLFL
Outline: as §1

T1 sequence (Q15375 28-998): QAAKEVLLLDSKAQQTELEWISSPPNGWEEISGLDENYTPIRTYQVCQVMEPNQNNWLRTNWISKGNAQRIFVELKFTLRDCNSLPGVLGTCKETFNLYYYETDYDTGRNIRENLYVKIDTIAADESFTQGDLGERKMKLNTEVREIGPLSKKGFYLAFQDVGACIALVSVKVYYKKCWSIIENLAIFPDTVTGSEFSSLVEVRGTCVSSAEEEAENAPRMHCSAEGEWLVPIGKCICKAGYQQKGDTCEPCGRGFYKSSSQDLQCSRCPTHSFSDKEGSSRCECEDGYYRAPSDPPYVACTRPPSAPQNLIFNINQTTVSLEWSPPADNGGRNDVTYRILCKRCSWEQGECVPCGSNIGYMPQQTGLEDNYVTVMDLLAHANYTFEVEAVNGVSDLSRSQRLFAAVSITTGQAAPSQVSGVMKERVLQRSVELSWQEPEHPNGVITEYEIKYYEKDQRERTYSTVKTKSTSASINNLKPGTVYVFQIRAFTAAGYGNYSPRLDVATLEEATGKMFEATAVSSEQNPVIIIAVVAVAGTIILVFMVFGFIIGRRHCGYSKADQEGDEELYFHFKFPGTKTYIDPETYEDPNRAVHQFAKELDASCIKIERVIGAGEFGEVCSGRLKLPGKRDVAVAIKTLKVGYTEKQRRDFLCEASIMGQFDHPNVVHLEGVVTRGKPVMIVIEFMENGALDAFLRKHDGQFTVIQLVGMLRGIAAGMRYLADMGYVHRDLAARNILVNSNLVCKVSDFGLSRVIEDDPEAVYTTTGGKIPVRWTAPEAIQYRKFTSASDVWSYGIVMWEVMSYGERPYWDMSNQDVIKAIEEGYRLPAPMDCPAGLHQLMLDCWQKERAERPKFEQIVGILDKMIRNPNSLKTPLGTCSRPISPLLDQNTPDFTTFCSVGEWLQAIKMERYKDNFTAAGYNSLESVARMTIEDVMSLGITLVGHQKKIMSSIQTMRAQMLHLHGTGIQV

Structure (SMILES)	remaining binding at 1 µM [1] [%]	remaining binding at 1 µM [2] [%]	remaining binding at 1 µM [3] [%]	remaining binding at 1 µM [4] [%]
CNc1nc(Nc2ccc(C(=O)N3CCOCC3)cc2OC)nc2[nH]cc(C#N)c12 [Example 1, 2-((2-methoxy-4-(morpholine-4-carbonyl)phenyl)amino)-4-(methylamino)-7H-pyrrolo[2,3-d]pyrimidine-5-carbonitrile]	97	100	85	63
CC1(Nc2nc(Nc3cnn([C@H]4CCN(C5COC5)C[C@@H]4F)c3Cl)nc3[nH]cc(C#N)c23)CC1 [Example 52, 2-((5-chloro-1-((3S,4S)-3-fluoro-1-(oxetane-3-yl)piperidine-4-yl)-1H-pyrazole-4-yl)amino)((1-methylcyclopropyl)amino)-7H-pyrrolo[2,3-d]pyrimidine-5-carbonitrile]	20	24	4.8	70
CCNc1nc(Nc2ccc(C(=O)N3CCC(N4CCOCC4)CC3)cc2OC)nc2[nH]cc(C(F)(F)F)c12 [Example 104, (4-((4-(ethylamino)-5-(trifluoromethyl)-7H-pyrrolo[2,3-d]pyrimidine-2-yl)amino)-3-methoxyphenyl)(4-morpholinopiperidine-1-yl)methanone]	94	86	84	87
